The numbers were not newly measured in PMC6724535 (Journal of molecular biology, 2019), which cites them from elsewhere.

The test system of data set [1] is E. coli expressing TetK, TetA, TetB, and TetM.
The next data set concerns E. coli expressing TetX. The note with it: E. coli expressing TetX vs wild-type E. coli.
Data set [2] has as its system E. coli expressing AACs, ANTs, APHs and 16S rRNA ribosomal methyltransferases.

On to jessenipeptin, for which the “amoebicidal activity IC50” value with D. discoideum was 4 µg/mL.
With `CN(C)[C@@H]1C(O)=C(C(N)=O)C(=O)[C@@]2(O)C(O)=C3C(=O)c4c(O)c(NC(=O)CN5CCCC5)cc(F)c4C[C@H]3C[C@@H]12` [eravacycline], the antibacterial activity result in data set [1] is reported as “maintained nearly full antibacterial activity”. Moreover, in the data set on E. coli expressing TetX, the “increase in minimal inhibitory concentration (MIC) relative to wild-type E. coli” value is 64 fold.
As for `CN[C@@H]1[C@@H](O)[C@@H](O[C@@H]2[C@@H](O)[C@H](O[C@H]3OC(CNCCO)=CC[C@H]3N)[C@@H](N)C[C@H]2NC(=O)[C@@H](O)CCN)OC[C@]1(C)O` [plazomicin], the “activity against E. coli expressing aminoglycoside inactivating enzymes” value in data set [2] (majority of canonical AACs, ANTs, and APHs) is listed as “maintain activity”. For the same compound, the “antibacterial activity with ribosomal methyltransferases” value in data set [2] (some plasmid-encoded 16S rRNA ribosomal methyltransferases) is given as “completely abolish”.
